In patent US7736624B2, “Methods and compositions for diagnostic and therapeutic targeting of COX-2” (priority 2006, dated 2010):
Where two headings read alike, the source gives them in different places. Blank lines part the entries; values can stand above or below the molecule they belong to.

How the values were obtained:
COX-2 [1] = biological target: T1, COX-2 (Homo sapiens, UniProt P35354); test: IC50 determinations using purified enzymes (TLC assay), COX-2; format: biochemical; design: made in house; host or cells: Sf9 insect cells
T1 sequence (P35354 18-604): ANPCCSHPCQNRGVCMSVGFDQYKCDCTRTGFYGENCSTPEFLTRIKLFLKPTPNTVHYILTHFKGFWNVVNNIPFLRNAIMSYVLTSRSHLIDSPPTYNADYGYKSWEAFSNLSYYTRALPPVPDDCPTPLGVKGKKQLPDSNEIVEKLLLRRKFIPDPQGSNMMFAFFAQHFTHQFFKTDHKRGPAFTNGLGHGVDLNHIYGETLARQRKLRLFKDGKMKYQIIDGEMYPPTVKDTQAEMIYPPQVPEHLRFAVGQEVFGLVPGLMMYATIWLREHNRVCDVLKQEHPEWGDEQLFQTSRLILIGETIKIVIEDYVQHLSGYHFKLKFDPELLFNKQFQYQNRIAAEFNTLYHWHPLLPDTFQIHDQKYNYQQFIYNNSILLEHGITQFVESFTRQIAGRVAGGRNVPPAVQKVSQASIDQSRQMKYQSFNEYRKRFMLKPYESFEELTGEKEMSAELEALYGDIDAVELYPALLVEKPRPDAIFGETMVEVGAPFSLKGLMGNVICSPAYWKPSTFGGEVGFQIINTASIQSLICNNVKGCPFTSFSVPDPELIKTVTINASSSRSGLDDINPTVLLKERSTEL
Text: (§1) Those skilled in the art will appreciate that an evaluation of the selectivity and efficacy of binding of the NSAID derivative to the COX-2 enzyme, e.g., after the derivative is synthesized, can be desirable. […] One example of an in vitro screening method takes advantage of the fact that both human and murine recombinant COX-2 can be expressed and isolated in pure form from an Sf9 cell expression system. […] Alternatively, membrane preparations from outdated human platelets can provide a source of human COX-1. […] The reaction is stopped by the addition of ethanol/methanol/1 M citrate, pH 4.0 (30:4:1). The extracted products are separated by thin layer chromatography (TLC), which allows quantitation of total product formation as well as assessment of product distribution. This assay is useful to define IC50 values for inhibition of either enzyme, and to determine time-dependency of inhibition. It also provides information concerning changes in products formed as a result of inhibition.
(§2) Reactions were terminated by solvent extraction in Et2O/CH3OH/1 M citrate, pH 4.0 (30:4:1). The phases were separated by centrifugation at 2000 g for 5 minutes and the organic phase was spotted on a 20×20 cm TLC plate (Lieselgel 60, EMD Chemicals, Inc., Gibbstown, N.J., United States of America). The plate was developed in EtOAc/CH2Cl2/glacial AcOH (75:25:1) at 4° C. Radiolabeled prostanoid products were quantitatively determined with a radioactivity scanner available from Bioscan, Inc. (Washington, D.C., United States of America). The percentage of total products observed at different concentrations of the presently disclosed compositions was divided by the percentage of products observed for protein samples preincubated for the same amount of time with DMSO.

ovine COX-1 = biological target: T2, ovine COX-1 (Ovis aries, UniProt P05979); test: IC50 determinations using purified enzymes (TLC assay), COX-1; format: biochemical; details: assayed against purified enzymes
T2 construct: can be purified from ovine seminal vesicles by standard procedures; from tissue; host or cells: ovine seminal vesicles
T2 sequence (P05979 25-600): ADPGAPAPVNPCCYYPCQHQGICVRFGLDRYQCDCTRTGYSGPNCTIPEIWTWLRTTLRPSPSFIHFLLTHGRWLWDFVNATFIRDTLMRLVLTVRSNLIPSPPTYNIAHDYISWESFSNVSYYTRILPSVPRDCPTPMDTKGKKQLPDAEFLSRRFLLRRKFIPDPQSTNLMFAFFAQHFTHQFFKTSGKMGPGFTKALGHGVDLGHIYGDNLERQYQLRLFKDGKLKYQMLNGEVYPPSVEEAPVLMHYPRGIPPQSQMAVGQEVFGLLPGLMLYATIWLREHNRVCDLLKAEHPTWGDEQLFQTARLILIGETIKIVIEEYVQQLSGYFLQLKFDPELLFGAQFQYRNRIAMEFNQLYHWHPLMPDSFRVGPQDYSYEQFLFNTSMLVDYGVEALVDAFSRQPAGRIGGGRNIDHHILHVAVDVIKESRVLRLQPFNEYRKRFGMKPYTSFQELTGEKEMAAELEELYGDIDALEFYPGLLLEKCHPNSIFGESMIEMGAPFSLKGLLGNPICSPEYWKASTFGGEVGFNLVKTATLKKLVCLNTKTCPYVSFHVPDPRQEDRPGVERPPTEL
Text: as §1, §2

[2] = In vitro metabolism study (esterase hydrolysis) with 1483 HNSCC cells, RP-HPLC; format: in vitro ADME; details: human, read-out: t1/2, disappearance of the parent conjugate (converted)
Description: (§3) An in vitro metabolism study was performed with Compound 27i using 1483 HNSCC cells to check the enzymatic (esterase) hydrolysis of the conjugate and identify metabolites up to 24 hours (h).

1483 HNSCC cells = test: as above; format: in vitro ADME; details: up to 24 hours
Description: as §3

RAW264.7 cells = test: In vitro cell imaging, LPS/IFNγ-activated RAW264.7 cells; format: cell-based, mouse; details: for fluorescence of control compounds in these in vitro assays: RAW264.7, HEK293/COX-2 and 1483 imaging assays
Description: RAW264.7 cells (a line established from a tumor induced in a mouse by Abelson murine leukemia virus and available from the American Type Culture Collection, Manassas, Va., United States of America) were grown overnight on 35 mm culture dishes (MatTek Corp., Ashland, Mass., United States of America) with glass coverslips in Dulbecco's Modified Eagle Medium (DMEM) plus 10% heat-inactivated fetal bovine serum (FBS). Platings of cells were done in order to reach 30% confluency the next day. After overnight growth, the growth medium was replaced with 2 ml serum-free DMEM per dish. Individual dishes then received 200 ng/ml LPS plus 10 units/ml murine IFNγ (Roche Applied Science, Indianapolis, Ind., United States of America) for 6 hours to induce COX-2. […] After 30 minutes, the cells were washed briefly three times in medium and incubated in Hank's balanced salt solution (HBSS)/Tyrode's for 60 minutes at 37° C. After 60 minutes, the HBSS/Tyrode's was removed and fresh HBSS/Tyrode's was added. The cells were immediately imaged using a Zeiss Axiovert 25 Microscope (propidium iodide filter/2-3 sec exposure/gain of 2).

COX-2 [3] = biological target: T3, COX-2 (Mus musculus, UniProt Q05769); test: Macrophage assay (RAW264.7), COX-2; format: cell-based, murine; details: Table 2; macrophage assay (M); read-out: IC50 COX-2
T3 construct: metabolism by the newly synthesized COX-2; endogenous in cells
T3 sequence (Q05769 18-604): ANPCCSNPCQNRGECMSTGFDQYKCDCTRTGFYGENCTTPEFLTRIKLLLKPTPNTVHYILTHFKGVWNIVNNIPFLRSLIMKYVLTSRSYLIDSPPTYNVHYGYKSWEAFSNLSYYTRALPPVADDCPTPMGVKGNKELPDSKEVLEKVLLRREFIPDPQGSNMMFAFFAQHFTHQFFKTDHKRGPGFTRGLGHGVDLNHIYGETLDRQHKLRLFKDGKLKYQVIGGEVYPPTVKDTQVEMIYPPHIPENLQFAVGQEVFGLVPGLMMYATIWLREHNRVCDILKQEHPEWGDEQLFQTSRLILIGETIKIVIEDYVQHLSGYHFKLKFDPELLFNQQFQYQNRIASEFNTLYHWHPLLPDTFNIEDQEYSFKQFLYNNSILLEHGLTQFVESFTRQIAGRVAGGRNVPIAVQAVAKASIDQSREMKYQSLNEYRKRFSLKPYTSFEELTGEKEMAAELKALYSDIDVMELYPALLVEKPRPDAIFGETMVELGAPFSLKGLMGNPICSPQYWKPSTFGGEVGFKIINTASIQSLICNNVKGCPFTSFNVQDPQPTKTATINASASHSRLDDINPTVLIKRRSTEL
Text: (§4) Thus, NSAID derivatives that are identified as potentially useful in the methods described herein can be further tested using, for example, the RAW264.7 murine macrophage cell line. These cells are readily available (for example, from the American Type Culture Collection (ATCC), Manassas, Va., United States of America) and are easily cultured in large numbers. They normally express low levels of COX-1 and very low to undetectable levels of COX-2. Upon exposure to bacterial lipopolysaccharide (LPS), however, COX-2 levels increase dramatically over the ensuing 24 hour period, and the cells produce PGD2 and PGE2 from endogenous arachidonic acid stores (generally, ˜1 nmol/10^7 cells total PG formation). After LPS exposure, the addition of exogenous arachidonic acid results in the formation of additional PGD2 and PGE2 as a result of metabolism by the newly synthesized COX-2.
(§5) This system provides a number of approaches for testing the inhibitory potency of COX-2-selective ligands (e.g., inhibitors). In general, following LPS activation, cells can be treated for 30 minutes with the desired concentrations of candidate derivative(s) in DMSO. ^14C-arachidonic acid can be added, and the cells can be incubated for 15 minutes at 37° C. Product formation can be assessed following extraction and TLC separation of the culture medium. Alternatively, the effects of candidate derivatives on PG synthesis from endogenous arachidonic acid can be assessed by incubating cells with desired concentrations of candidate derivatives 30 minutes prior to LPS exposure. Following a 24-hour incubation, medium can be collected and extracted, and the amount of PGD2 and/or PGE2 can be assayed by gas chromatography-mass spectrometry, liquid chromatography-mass spectrometry, or ELISA.

COX-1 [4] = biological target: T4, COX-1 (Mus musculus, UniProt P22437); test: Macrophage assay (RAW264.7), COX-1; format: cell-based, murine; details: Table 2; macrophage assay (M)
T4 sequence (P22437 1-602): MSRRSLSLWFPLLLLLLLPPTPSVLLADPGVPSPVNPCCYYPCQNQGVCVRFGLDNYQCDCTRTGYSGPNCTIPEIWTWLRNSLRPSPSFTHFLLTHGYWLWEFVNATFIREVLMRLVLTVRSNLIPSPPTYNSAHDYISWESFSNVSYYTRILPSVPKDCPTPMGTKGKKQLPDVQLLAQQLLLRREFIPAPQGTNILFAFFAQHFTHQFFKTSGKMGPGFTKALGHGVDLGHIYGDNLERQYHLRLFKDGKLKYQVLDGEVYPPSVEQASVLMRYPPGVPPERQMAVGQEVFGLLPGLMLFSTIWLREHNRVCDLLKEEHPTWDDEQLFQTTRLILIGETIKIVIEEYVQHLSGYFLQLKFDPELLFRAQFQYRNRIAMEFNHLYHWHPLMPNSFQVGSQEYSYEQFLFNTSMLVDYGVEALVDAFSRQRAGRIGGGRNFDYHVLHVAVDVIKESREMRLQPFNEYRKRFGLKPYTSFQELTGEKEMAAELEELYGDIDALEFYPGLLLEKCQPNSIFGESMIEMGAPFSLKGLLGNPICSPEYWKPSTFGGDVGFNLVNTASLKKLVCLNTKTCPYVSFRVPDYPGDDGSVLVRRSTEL
Text: as §4, §5

COX-1 [5] = details: literature; cited from earlier work
COX-1 [6] = biological target: T5, COX-1 (Ovis aries, UniProt P05979); details: literature; cited from earlier work
T5 sequence (P05979 25-600): T2 sequence (P05979 25-600)

COX-2 [7] = biological target: T1, COX-2; design: 1483 Head/Neck Squamous Cell Carcinoma Cells (Sacks et al. (1988) Cancer Res 48, 2858-2866), which express COX-2; endogenous in cells; host or cells: 1483 HNSCC cells; details: literature; cited from earlier work
[8] = Table 3, assayed against purified enzymes, read-out: IC50 COX-2

Compound: COc1ccc2c(c1)c(CC(=O)O)c(C)n2C(=O)c1ccc(Cl)cc1 [Indomethacin, indomethacin]
potency as ligand of COX-1 relative to COX-2 (COX-1 [5]): approximately 15 fold

Compound: O=C(c1ccccc1)c1ccc2n1CCC2C(=O)NCc1ccc(F)cc1 (stereo not drawn) [p-fluorobenzylamide of ketorolac]
IC50 (COX-1 [6]): > 65 µM
IC50 (COX-2 [7]): 0.08 µM

Compound: COc1ccc2c(c1)c(CC(=O)Nc1ccc(F)cc1)c(C)n2C(=O)c1ccc(Cl)cc1 [p-fluorophenylamide of indomethacin, indomethacin-N-(4-fluorophenyl)amide]
IC50 (COX-1 [6]): > 66 µM

The next lines start with results.

IC50 (COX-2 [1]; purified enzyme, read-out: COX-2 IC50): 0.107 µM
IC50 (ovine COX-1; Table 1): > 4 µM
half-life [2]: 5.5 h
parent conjugate remained (1483 HNSCC cells): 25%
Compound: COc1ccc2c(c1)c(CC(=O)NCCOC(=O)\C=C(C)/C=C/C=C(C)/C=C/C1=C(C)CCCC1(C)C)c(C)n2C(=O)c1ccc(Cl)cc1 [Compound 27i]

IC50 (COX-2 [1]; [8]): > 25 µM
IC50 (ovine COX-1; Table 3): > 25 µM
Compound: COc1ccc2c(c1)c(CC(=O)NCCNC(=O)c1ccc(C(=O)[O-])c(C3=c4cc5c6c(c4Oc4c3cc3c7c4CCCN7CCC3)CCC[N+]=6CCC5)c1)c(C)n2C(=O)c1ccc(Cl)cc1 [Compound 27ww]
fluorescence imaging of cells (RAW264.7 cells; 200 nM, 30 minutes, LPS-activated RAW264.7): No fluorescence above background
fluorescence of control compounds in these in vitro assays (RAW264.7 cells): minimal fluorescence

IC50 (COX-2 [1]; [8]): > 25 µM
IC50 (ovine COX-1; Table 3): > 25 µM
Compound: COc1ccc2c(c1)c(CCNC(=O)c1ccc(C3=c4cc5c6c(c4Oc4c3cc3c7c4CCCN7CCC3)CCC[N+]=6CCC5)c(C(=O)[O-])c1)c(C)n2Cc1ccc(Br)cc1 [Compound 28f]
fluorescence of control compounds in these in vitro assays (RAW264.7 cells): minimal fluorescence

IC50 (COX-2 [1]; Table 2, assayed against purified enzymes, read-out: IC50 COX-2): 8.9 µM
IC50 (COX-2 [3]): 1.4e-06 M
IC50 (COX-1 [4]): > 5e-06 M
Compound: Cc1ccc(-c2cc(CCC(=O)O)nn2-c2ccc(S(N)(=O)=O)cc2)cc1 [Compound 30c, 3-[1-{p-(Sulfonamido)phenyl}-5-p-tolyl-1H-pyrazol-3-yl]propanoic acid]
